6 molecules from US20080275058A1, “N-Substituted-1H-Quinoline-2,4-Diones, Preparation Method Thereof, And Pharmaceutical Composition Containing The Same” (KOREA RESEARCH INSTITUTE OF CHEMICAL TECHNOLOGY, priority 2005, published 2008) can be followed below.

Read-outs that look alike come from different tables or passages of the source.

One data set addresses T1, hD2L (Homo sapiens, UniProt P14416).
T1 construct: purchased BioSignal Packard Inc., Montreal, Canada
The data set is described as follows: Radioligand binding, dopamine D2 ([3H]spiperone). The conditions noted are these: Table 4; [3H]spiperone 1 nM; read-out: Binding affinity, IC50 (nM) D2. Summed up: (§1)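 Membrane competition binding with [3H]spiperone (1 nM) for hD2L and hD3, or [3H]YM-09151-2 (0.06 nM) for hD4.2, each in receptor-specific Tris-HCl pH 7.4 buffer containing Mg2+/EDTA (D3 and D4 also with K+, Ca2+; D3 with 120 mM NaCl). Compounds were tested at 7-8 concentrations in duplicate, and IC50 was derived by nonlinear regression across three assays.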

The next data set addresses T2, hD3 (Homo sapiens, UniProt P35462).
T2 construct: purchased BioSignal Packard Inc., Montreal, Canada
Briefly: Radioligand binding, dopamine D3 ([3H]spiperone). As to conditions: Table 4; [3H]spiperone 1 nM; read-out: Binding affinity, IC50 (nM) D3. Summed up:
as §1

A further data set has as its target T3, 5-HT1a (Homo sapiens, UniProt P08908).
T3 construct: purchased Euroscreen/BioSignal Packard Inc
T3 sequence (P08908 1-422): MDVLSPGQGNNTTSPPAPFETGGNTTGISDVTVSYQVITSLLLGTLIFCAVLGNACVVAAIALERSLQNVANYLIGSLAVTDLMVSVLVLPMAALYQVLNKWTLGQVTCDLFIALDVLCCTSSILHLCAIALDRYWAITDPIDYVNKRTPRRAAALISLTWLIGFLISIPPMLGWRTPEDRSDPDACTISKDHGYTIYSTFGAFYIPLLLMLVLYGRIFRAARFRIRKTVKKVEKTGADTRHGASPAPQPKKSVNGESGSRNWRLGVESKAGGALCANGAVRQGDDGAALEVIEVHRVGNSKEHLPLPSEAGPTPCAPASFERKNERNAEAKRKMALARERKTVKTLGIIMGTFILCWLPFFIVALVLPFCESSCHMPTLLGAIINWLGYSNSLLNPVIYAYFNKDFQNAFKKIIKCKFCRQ
The data set is described as follows: Radioligand binding, 5-HT1a ([3H]8-OH-DPAT). The conditions noted are these: Table 4; [3H]8-OH-DPAT 0.5 nM; read-out: Binding affinity, IC50 (nM) 5-HT1a. In a few lines:
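Receptor-expressing membranes were obtained commercially, and the displacement of radiolabel was then carried out as the supplier's method specifies.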

The target in data set [1] is T4, Human serotonin 5-HT6 receptor (Homo sapiens, UniProt P50406).
T4 construct: made in house; host or cells: insect Sf21 cells (baculovirus vector BacPAK8)
The data set is described as follows: [3H]LSD binding assay on cloned 5-HT6 receptor membranes. The conditions noted are these: for binding affinity at 5-HT6 receptor labeled by [3H]LSD, in words: comment on Table 2.

In another data set the target is T5, 5-HT2c (Homo sapiens, UniProt P28335).
T5 construct: purchased Euroscreen/BioSignal Packard Inc
T5 sequence (P28335 33-458): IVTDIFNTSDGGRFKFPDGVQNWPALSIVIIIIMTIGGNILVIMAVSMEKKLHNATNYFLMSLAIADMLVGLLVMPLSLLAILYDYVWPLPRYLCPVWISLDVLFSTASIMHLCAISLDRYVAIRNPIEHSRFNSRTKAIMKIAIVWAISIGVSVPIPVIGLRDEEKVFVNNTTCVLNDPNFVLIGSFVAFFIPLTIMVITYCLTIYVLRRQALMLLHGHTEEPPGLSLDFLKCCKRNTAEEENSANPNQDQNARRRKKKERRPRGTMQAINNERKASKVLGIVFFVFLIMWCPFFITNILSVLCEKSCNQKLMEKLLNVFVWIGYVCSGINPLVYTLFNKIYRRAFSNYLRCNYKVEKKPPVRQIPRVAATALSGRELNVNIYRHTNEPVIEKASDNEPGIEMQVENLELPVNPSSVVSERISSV
The data set is described as follows: Radioligand binding, 5-HT2c ([3H]Mesulergine). As to conditions: Table 4; [3H]Mesulergine 1 nM; read-out: Binding affinity, IC50 (nM) 5-HT2c.

The target in another data set is D1 (Homo sapiens, UniProt P21728). The data set is described as follows: Radioligand binding, dopamine D1. As to conditions: Table 4; read-out: Binding affinity, IC50 (nM) D1.
The target of another data set is T6, 5-HT7 (Homo sapiens, UniProt P34969).
T6 construct: purchased Euroscreen/BioSignal Packard Inc
The data set is described as follows: Radioligand binding, 5-HT7 ([3H]LSD). As to conditions: Table 4; [3H]LSD 3 nM; read-out: Binding affinity, IC50 (nM) 5-HT7.

The next data set deals with T7, hD4.2 receptor (Homo sapiens, UniProt P21917, DEL265-296).
T7 construct: purchased BioSignal Packard Inc., Montreal, Canada
T7 sequence (P21917 with tags, fused parts or gaps DEL265-296): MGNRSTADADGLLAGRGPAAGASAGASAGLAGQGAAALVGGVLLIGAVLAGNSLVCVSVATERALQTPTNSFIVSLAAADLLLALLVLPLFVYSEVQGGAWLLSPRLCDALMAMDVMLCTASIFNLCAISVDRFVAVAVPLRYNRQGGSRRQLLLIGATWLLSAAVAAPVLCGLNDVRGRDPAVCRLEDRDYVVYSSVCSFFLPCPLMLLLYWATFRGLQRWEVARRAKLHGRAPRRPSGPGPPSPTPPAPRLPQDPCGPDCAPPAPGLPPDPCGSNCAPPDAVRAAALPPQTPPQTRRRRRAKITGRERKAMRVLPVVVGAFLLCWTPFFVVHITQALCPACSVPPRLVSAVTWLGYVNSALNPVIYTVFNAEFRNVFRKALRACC
Briefly: Radioligand binding, dopamine D4 ([3H]YM-09151-2). The conditions noted are these: Table 4; [3H]YM-09151-2 0.06 nM; read-out: Binding affinity, IC50 (nM) D4. In a few lines:
as §1

The subject of another data set is mice. The data set is described as follows: Rotarod deficit in mice. The format is in vivo, mouse. The protocol:
(§2) The mouse was placed on a 1 inch diameter knurled plastic rod rotating at 6 rpm (Ugo-Basile, Milano, Italy), and the rotarod deficit (%) was obtained by counting the number of animals fallen from the rotating rod within 1 min [Dunham et al., 1957] at 60, 90 and 120 min after the injection of the compound according to the invention(200, 300 or 400 ? ). […] The compounds of the examples were suspended in 3% Tween 80 solution, and were administered (p.o.) 60 min before the testing.
A general note: Falling from the rotarod earlier than controls is read as motor impairment.

Another data set is described as follows: Rotarod deficit in mice. The data set is classed as in vivo, mouse. As to conditions: mouse, in vivo, po, unit printed as image, read-out: TD50 (median neurotoxic dose). On the procedure:
as §2

Another data set has as its target T8, 5-HT2a (Homo sapiens, UniProt P28223).
T8 construct: purchased Euroscreen/BioSignal Packard Inc
Briefly: Radioligand binding, 5-HT2a ([3H]Ketanserin). As to conditions: Table 4; [3H]Ketanserin 1 nM; read-out: Binding affinity, IC50 (nM) 5-HT2a.

Setting [2] is: Table 2, 1.87 nM [3H]LSD, 37 C, 60 min, read-out: IC50 (nM), binding affinity to the 5-HT6 receptor.
[3] abbreviates: Table 4, read-out: Binding affinity, IC50 (nM) 5-HT6.

By IC50 is commonly meant the point on the concentration scale where inhibition reaches its midpoint. The term melting point denotes the temperature of the solid-liquid transition. Broadly, the TD50 is the dose at which the toxic effect under study appears in half of the subjects.

Chain of D1 (P21728 whole entry): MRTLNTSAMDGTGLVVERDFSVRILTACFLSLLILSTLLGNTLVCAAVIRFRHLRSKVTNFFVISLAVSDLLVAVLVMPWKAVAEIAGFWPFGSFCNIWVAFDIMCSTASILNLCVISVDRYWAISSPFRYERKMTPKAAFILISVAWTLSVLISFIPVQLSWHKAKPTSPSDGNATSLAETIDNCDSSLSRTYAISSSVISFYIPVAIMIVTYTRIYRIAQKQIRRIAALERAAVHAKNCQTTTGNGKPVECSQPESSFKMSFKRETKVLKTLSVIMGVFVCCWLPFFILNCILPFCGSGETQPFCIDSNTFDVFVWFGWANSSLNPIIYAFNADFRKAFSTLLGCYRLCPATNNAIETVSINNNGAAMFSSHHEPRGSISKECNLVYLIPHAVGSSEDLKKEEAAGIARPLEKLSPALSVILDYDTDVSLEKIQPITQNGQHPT
T8 sequence (P28223 whole entry): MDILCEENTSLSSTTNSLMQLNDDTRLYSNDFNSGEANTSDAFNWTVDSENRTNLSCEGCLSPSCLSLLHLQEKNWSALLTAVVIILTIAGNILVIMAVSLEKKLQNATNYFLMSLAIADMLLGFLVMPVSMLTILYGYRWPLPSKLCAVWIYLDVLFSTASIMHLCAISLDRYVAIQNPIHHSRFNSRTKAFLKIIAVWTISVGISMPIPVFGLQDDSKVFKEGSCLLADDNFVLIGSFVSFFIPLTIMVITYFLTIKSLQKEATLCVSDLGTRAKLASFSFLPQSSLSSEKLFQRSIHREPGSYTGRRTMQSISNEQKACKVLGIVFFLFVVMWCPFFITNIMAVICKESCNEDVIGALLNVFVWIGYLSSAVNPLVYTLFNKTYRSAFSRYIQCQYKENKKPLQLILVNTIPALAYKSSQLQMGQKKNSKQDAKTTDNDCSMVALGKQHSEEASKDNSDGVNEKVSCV
T1 sequence (P14416 whole entry): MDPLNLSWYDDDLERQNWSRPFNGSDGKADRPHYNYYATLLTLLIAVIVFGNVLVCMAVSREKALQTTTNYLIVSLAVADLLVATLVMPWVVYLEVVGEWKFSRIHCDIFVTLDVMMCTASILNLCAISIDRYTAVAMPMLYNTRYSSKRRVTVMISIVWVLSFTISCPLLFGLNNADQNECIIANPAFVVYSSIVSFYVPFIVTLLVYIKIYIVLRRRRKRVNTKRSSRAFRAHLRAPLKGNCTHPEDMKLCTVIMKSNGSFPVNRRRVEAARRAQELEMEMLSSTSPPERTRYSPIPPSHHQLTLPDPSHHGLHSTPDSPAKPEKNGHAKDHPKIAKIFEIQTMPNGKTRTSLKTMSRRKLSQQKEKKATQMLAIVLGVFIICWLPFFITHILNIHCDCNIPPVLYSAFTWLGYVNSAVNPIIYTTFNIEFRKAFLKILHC
T6 sequence (P34969 whole entry): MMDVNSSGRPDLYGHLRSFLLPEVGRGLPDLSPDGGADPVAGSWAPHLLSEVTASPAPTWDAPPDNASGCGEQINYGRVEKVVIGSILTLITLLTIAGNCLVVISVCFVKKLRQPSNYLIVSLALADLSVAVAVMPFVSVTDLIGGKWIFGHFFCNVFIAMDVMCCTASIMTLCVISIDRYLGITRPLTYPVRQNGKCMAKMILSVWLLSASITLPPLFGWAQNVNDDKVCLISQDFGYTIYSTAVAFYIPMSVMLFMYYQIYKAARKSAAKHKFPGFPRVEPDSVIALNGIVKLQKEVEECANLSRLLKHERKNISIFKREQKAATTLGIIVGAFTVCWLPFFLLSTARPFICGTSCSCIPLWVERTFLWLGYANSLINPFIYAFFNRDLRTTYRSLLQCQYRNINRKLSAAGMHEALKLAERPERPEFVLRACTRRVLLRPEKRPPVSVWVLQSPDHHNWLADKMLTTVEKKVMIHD
T2 sequence (P35462 whole entry): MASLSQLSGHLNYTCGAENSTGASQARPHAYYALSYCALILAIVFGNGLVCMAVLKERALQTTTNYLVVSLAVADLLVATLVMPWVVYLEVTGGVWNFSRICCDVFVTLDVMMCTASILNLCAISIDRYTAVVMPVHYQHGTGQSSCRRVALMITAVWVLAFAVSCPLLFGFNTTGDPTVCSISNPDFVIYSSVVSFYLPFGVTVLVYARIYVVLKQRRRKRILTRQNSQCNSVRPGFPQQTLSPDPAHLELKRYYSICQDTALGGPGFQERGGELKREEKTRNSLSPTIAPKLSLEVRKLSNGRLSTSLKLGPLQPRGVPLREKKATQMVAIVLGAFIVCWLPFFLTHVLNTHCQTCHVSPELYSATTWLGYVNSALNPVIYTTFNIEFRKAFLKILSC
T4 sequence (P50406 whole entry): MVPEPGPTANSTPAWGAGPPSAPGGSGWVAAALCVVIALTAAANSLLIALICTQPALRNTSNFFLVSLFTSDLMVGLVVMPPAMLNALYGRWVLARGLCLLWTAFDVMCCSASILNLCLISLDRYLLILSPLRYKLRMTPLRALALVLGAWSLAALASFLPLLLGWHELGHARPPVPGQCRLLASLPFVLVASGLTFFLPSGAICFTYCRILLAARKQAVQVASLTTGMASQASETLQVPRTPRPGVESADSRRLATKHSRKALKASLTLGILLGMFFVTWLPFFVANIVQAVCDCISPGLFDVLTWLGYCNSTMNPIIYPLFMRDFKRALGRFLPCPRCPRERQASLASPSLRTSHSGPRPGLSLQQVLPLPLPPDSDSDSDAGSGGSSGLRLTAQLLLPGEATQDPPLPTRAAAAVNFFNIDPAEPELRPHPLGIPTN

`CCNc1ccc([C@]2(C)C(=O)c3c(N4CCN(C)CC4)cc(Cl)cc3N(Cc3ccccc3)C2=O)cc1` (stereo in doubt) [Example 6, 1-Benzyl-7-chloro-3-(4-ethylamino-phenyl)-3-methyl-5-(4-methyl-piperazin-1-yl)-1H-quinoline-2,4-dione]: the melting point was 153 to 155 °C. For the same molecule, the IC50 on hD2L is above 1000 nM. Further, at hD3, the IC50 came to 981 nM. The IC50 at 5-HT1a was above 10000 nM. Besides, the IC50 in [1] (setting [2]) is 3.4 nM. In addition, the IC50 in [1] (setting [3]) is 3.4 nM. In addition, the IC50 on 5-HT2c is above 1000 nM. Besides, the IC50 on D1 is above 1000 nM. Moreover, on 5-HT7, the IC50 is above 1000 nM. On hD4.2 receptor, the half-maximal inhibitory concentration (IC50) is above 10000 nM. Besides, the “Rotarod deficit (%)” value in the data set on mice (200 p.o. (dose unit not given)) was determined as 0%. For the same molecule, in the data set on mice (300 p.o. (dose unit not given)), the “Rotarod deficit (%)” value is reported as 0%. In addition, the “Rotarod deficit (%)” value with mice (400 p.o. (dose unit not given)) was 0%. The TD50 at 120 min in “Rotarod deficit in mice” is above 400 mg/kg. Moreover, on 5-HT2a, the half-maximal inhibitory concentration (IC50) was above 1000 nM.
Consider `COc1ccc([C@@]2(C)C(=O)c3c(N4CCNCC4)cc(Cl)cc3N(Cc3ccccc3)C2=O)cc1` [Example 13-1, (S)-1-Benzyl-7-chloro-3-(4-methoxy-phenyl)-3-methyl-5-piperazin-1-yl-1H-quinoline-2,4-dione], for which the IC50 at hD2L is above 10000 nM; at hD3, 8930 nM; on 5-HT1a, 5430 nM; in data set [1] (setting [2]), 1.4 nM; in [1] (setting [3]) it was 1.4 nM; at 5-HT2c it was 7740 nM. The IC50 at D1 was 6150 nM; at 5-HT7 it was 5850 nM; on hD4.2 receptor it was above 10000 nM; at 5-HT2a, 2510 nM. Besides, the “binding affinity at 5-HT6 receptor labeled by [3H]LSD, in words” value in [1] is “significant affinities”. Also, the “Rotarod deficit (%)” value in the data set with mice (200 p.o. (dose unit not given)), with mice (300 p.o. (dose unit not given)) and in the data set with mice (400 p.o. (dose unit not given)) was 0% throughout. In addition, the TD50 at 120 min in “Rotarod deficit in mice” was above 400 mg/kg.
Regarding `COc1ccc([C@]2(C)C(=O)c3c(N4CCNCC4)cc(Cl)cc3N(Cc3ccccc3)C2=O)cc1` [Example 13-2, (R)-1-Benzyl-7-chloro-3-(4-methoxy-phenyl)-3-methyl-5-piperazin-1-yl-1H-quinoline-2,4-dione], the IC50 at hD2L was above 10000 nM; at hD3 it was 2580 nM; at 5-HT1a, 3280 nM; in [1] (setting [2]) it was 9 nM; in data set [1] (setting [3]), 9 nM; on 5-HT2c, 9740 nM. In addition, the IC50 on D1 is 5210 nM; at 5-HT7 it was 9520 nM; at hD4.2 receptor, above 10000 nM; at 5-HT2a it was 2840 nM. The “Rotarod deficit (%)” value with mice (200 p.o. (dose unit not given)), in the data set on mice (300 p.o. (dose unit not given)) and with mice (400 p.o. (dose unit not given)) was 0% in each case. Also, in “Rotarod deficit in mice”, the TD50 at 120 min was above 400 mg/kg.
As for `C[C@]1(c2ccc(O)cc2)C(=O)c2c(N3CCNCC3)cc(Cl)cc2N(Cc2ccccc2)C1=O` [Example 14-1, (S)-1-Benzyl-7-chloro-3-(4-hydroxy-phenyl)-3-methyl-5-piperazin-1-yl-1H-quinoline-2,4-dione], the IC50 is above 10000 nM at hD2L; 7650 nM on hD3; 7950 nM on 5-HT1a; 1.9 nM in [1] (setting [2]); 1.9 nM in [1] (setting [3]); above 10000 nM on 5-HT2c. The IC50 on D1 is 7070 nM; at 5-HT7, 9860 nM; on hD4.2 receptor it was above 10000 nM; on 5-HT2a, 2000 nM. In addition, in data set [1], the “binding affinity at 5-HT6 receptor labeled by [3H]LSD, in words” value is listed as “significant affinities”. In addition, the “Rotarod deficit (%)” value in the data set on mice (200 p.o. (dose unit not given)), with mice (300 p.o. (dose unit not given)) and with mice (400 p.o. (dose unit not given)) was 0% each time. Also, the TD50 at 120 min in “Rotarod deficit in mice” was above 400 mg/kg.
For the molecule `C[C@@]1(c2ccc(O)cc2)C(=O)c2c(N3CCNCC3)cc(Cl)cc2N(Cc2ccccc2)C1=O` [Example 14-2, (R)-1-Benzyl-7-chloro-3-(4-hydroxy-phenyl)-3-methyl-5-piperazin-1-yl-1H-quinoline-2,4-dione], the IC50 at hD2L is above 10000 nM; on hD3, 1760 nM; on 5-HT1a, 5890 nM; in data set [1] (setting [2]), 13.3 nM; in [1] (setting [3]), 13.3 nM; on 5-HT2c, above 10000 nM. The IC50 at D1 was 1540 nM; at 5-HT7, 9240 nM; at hD4.2 receptor, above 10000 nM; on 5-HT2a, 6380 nM. For the same molecule, the “Rotarod deficit (%)” value in the data set with mice (200 p.o. (dose unit not given)), in the data set with mice (300 p.o. (dose unit not given)) and with mice (400 p.o. (dose unit not given)) was 0% in each case. In “Rotarod deficit in mice”, the TD50 at 120 min was above 400 mg/kg.
On to `CC1(c2ccccc2)C(=O)c2c(N3CCNCC3)cc(Cl)cc2N(Cc2ccccc2)C1=O` (stereo not drawn) [Example 22, 1-Benzyl-7-chloro-3-methyl-3-phenyl-5-piperazin-1-yl-1H-quinoline-2,4-dione], for which the IC50 at hD2L was 2450 nM; at hD3 it was 1810 nM; on 5-HT1a it was 3910 nM; in [1] (setting [2]), 2.7 nM; in [1] (setting [3]), 2.3 nM; at 5-HT2c it was 1830 nM. The IC50 on D1 is 5140 nM; on 5-HT7, 5070 nM; at hD4.2 receptor it was above 10000 nM; on 5-HT2a, 2900 nM. The “Rotarod deficit (%)” value with mice (200 p.o. (dose unit not given)), in the data set with mice (300 p.o. (dose unit not given)) and in the data set on mice (400 p.o. (dose unit not given)) was 0% each time. The TD50 at 120 min in the data set “Rotarod deficit in mice” is above 400 mg/kg.
